Test results published in PubChem BioAssay AID1919008 (Molecular Pharmacology Branch, DTP, NCI, 2023).

System: DMS-114 complex spheroids with HUVEC/MSC, growth % test/control
Experiment: Anticancer human tumor DMS-114 cell line growth inhibition [AhR];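 note: spheroids exposed to agents for 7 days before readout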;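 for viability, T/C: 100% = DMSO vehicle control wells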
Settings: for IC50: curve of first compound; for viability, T/C: stronger effect = lower value
Description: Multicellular complex tumor spheroid response to aryl hydrocarbon receptor antagonists in combination with a variety of drugs and investigational agents in selected tumor cell lines
The current study was undertaken to assess response to aryl hydrocarbon receptor antagonists in combination with standard-of-care drugs and investigational agents in solid tumor complex spheroid models. Complex spheroids include a stromal component modeled by human endothelial cells (HUVEC) and fibroblasts modeled by human mesenchymal stem cells (MSCs). The concentration ranges selected for each drug and investigational agent were based upon clinically achievable concentrations if the clinical Cmax of the agent was known.
Compounds. The drugs and investigational agents: BAY 2416964 (NSC825713), GNF351 (NSC835774), CH-223191 (NSC835775), CPI-455 (NSC825282), aza-TdCyd (NSC777586), decitabine (NSC127716), belinostat (NSC758774), entinostat (NSC756642), pevonedistat (NSC761192), tazemetostat (NSC777109), talazoparib (NSC765396), olaparib (NSC753686), selinexor (NSC780203), nedisertib (M3814, NSC802822), bortezomib (NSC756655), venetoclax (NSC766270), doxorubicin (NSC123127), elimusertib (BAY189344, NSC800525), ceralasertib (AZD6738, NSC777638), TAK-243 (NSC785004), alisertib (NSC759677), etoposide (NSC141540), topotecan (NSC609699), eribulin (NSC707389), gemcitabine (NSC613327), carboplatin (NSC241240), cisplatin (NSC119875), and SN-38 (NSC673596) were obtained from the National Cancer Institute (NCI) Developmental Therapeutics Program Chemical Repository (32). The FDA-approved anticancer drug set is available from the Developmental Therapeutics Program at https://dtp.cancer.gov/organization/dscb/obtaining/available plates.htm. […] The stock solutions were prepared in dimethyl sulfoxide (DMSO, Sigma-Aldrich, St. Louis, MO, cat. D2650), except for the platinum compounds which were prepared in saline (Quality Biological, Gaithersburg, MD, cat. 114-055-101), at 800-fold the tested concentration and stored at -70 degrees C prior to their use. All drugs and investigational agents were tested over a range starting from a high concentration at or near the clinical Cmax and decreasing in half-log increments. If the clinical Cmax for an agent had not been determined, the highest concentration tested was 10 microM (Table 1).
Cell Culture. All cells were maintained in an incubator at 37 degrees C and 5% CO2 with 95% humidity. The PDC lines were cultured according to standard operating procedures established by the NCI PDMR (https://pdmr.cancer.gov). Briefly, all PDCs were thawed and cultured in Matrigel-coated flasks prepared with a working solution of 1X Ham's F-12 nutrient mix, without supplementation (Invitrogen, Waltham, MA, cat. 11765054), 100 U/mL penicillin-streptomycin (Invitrogen, cat. 15140122), and 2.5% Matrigel (Corning Inc., Corning, NY, cat. 354248) for the first three passages. All PDCs were cultured in complete DMEM/F-12 media containing advanced DMEM/F-12 (Invitrogen, cat. 12634028), 4.9% defined fetal bovine serum, heat inactivated (HyClone Laboratories Inc., Logan, UT, cat. SH30070.03HI), 389 ng/mL hydrocortisone (Sigma-Aldrich, cat. H4001), 9.7 ng/mL human EGF recombinant protein (Invitrogen, cat. PHG0313), 23.4 microg/mL adenine (Sigma-Aldrich, cat. A2786), 97.3 U/mL penicillin-streptomycin (Invitrogen, cat. 15140122), 1.9 mM L-glutamine (Invitrogen, cat. 25030081), and 9.7 microM Y-27632 dihydrochloride (Tocris Bioscience, Bristol, United Kingdom, cat. 1254). The PDCs were cultured in complete DMEM/F12 media without 10 microM Y-27632 dihydrochloride for at least two passages prior to the screen. The established cell lines NCI-H1341 and […] were cultured in DMEM/F-12, HEPES (Invitrogen, cat. 11330032), 5% defined fetal bovine serum (HyClone Laboratories Inc., cat. SH30070.03), ITS premix universal culture supplement [insulin (5 microg/mL), transferrin (5 microg/mL), and selenious acid (5 ng/mL)] […]

[1] = second compound 0.1 µM, first compound 0.0316 µM
[2] = second compound 0.1 µM, first compound 0.1 µM
[3] = second compound 0.1 µM, first compound 0.316 µM
[4] = second compound 0.1 µM, first compound 1 µM
[5] = second compound 0.1 µM, first compound 3.16 µM
[6] = second compound 0.1 µM, first compound 10 µM
[7] = second compound 0.316 µM, first compound 0.0316 µM
[8] = second compound 0.316 µM, first compound 0.1 µM
[9] = second compound 0.316 µM, first compound 0.316 µM
[10] = second compound 0.316 µM, first compound 1 µM
[11] = second compound 0.316 µM, first compound 3.16 µM
[12] = second compound 0.316 µM, first compound 10 µM
[13] = second compound 1 µM, first compound 0.0316 µM
[14] = second compound 1 µM, first compound 0.1 µM
[15] = second compound 1 µM, first compound 0.316 µM
[16] = second compound 1 µM, first compound 1 µM
[17] = second compound 1 µM, first compound 3.16 µM
[18] = second compound 1 µM, first compound 10 µM
[19] = second compound 3.16 µM, first compound 0.0316 µM
[20] = second compound 3.16 µM, first compound 0.1 µM
[21] = second compound 3.16 µM, first compound 0.316 µM
[22] = second compound 3.16 µM, first compound 1 µM
[23] = second compound 3.16 µM, first compound 3.16 µM
[24] = second compound 3.16 µM, first compound 10 µM
[25] = second compound 10 µM, first compound 0.0316 µM
[26] = second compound 10 µM, first compound 0.1 µM
[27] = second compound 10 µM, first compound 0.316 µM
[28] = second compound 10 µM, first compound 1 µM
[29] = second compound 10 µM, first compound 3.16 µM
[30] = second compound 10 µM, first compound 10 µM

CCc1c2c(nc3ccc(O)cc13)-c1cc3c(c(=O)n1C2)COC(=O)[C@]3(O)CC + CC(CO)NC(=O)c1cc(-c2ccc(Cl)cc2)nn(-c2cnn(C)c2)c1=O
IC50 (second compound 0.1 µM): 1.6 nM
IC50 (second compound 0.316 µM): 1.09 nM
IC50 (second compound 1 µM): < 0.949 nM
IC50 (second compound 3.16 µM): < 0.949 nM
IC50 (second compound 10 µM): < 0.949 nM
viability, T/C (second compound 0.1 µM, first compound 0.000949 µM): 56.4%
viability, T/C (second compound 0.1 µM, first compound 0.003 µM): 42.4%
viability, T/C (second compound 0.1 µM, first compound 0.00949 µM): 23.2%
viability, T/C (second compound 0.1 µM, first compound 0.03 µM): 17.5%
viability, T/C (second compound 0.1 µM, first compound 0.0949 µM): 17.7%
viability, T/C (second compound 0.1 µM, first compound 0.3 µM): 16.2%
viability, T/C (second compound 0.316 µM, first compound 0.000949 µM): 51.4%
viability, T/C (second compound 0.316 µM, first compound 0.003 µM): 40.4%
viability, T/C (second compound 0.316 µM, first compound 0.00949 µM): 21.2%
viability, T/C (second compound 0.316 µM, first compound 0.03 µM): 15.8%
viability, T/C (second compound 0.316 µM, first compound 0.0949 µM): 15.7%
viability, T/C (second compound 0.316 µM, first compound 0.3 µM): 15.4%
viability, T/C (second compound 1 µM, first compound 0.000949 µM): 49.4%
viability, T/C (second compound 1 µM, first compound 0.003 µM): 37.8%
viability, T/C (second compound 1 µM, first compound 0.00949 µM): 21%
viability, T/C (second compound 1 µM, first compound 0.03 µM): 15.4%
viability, T/C (second compound 1 µM, first compound 0.0949 µM): 18.8%
viability, T/C (second compound 1 µM, first compound 0.3 µM): 17.6%
viability, T/C (second compound 3.16 µM, first compound 0.000949 µM): 47.9%
viability, T/C (second compound 3.16 µM, first compound 0.003 µM): 31.5%
viability, T/C (second compound 3.16 µM, first compound 0.00949 µM): 20.7%
viability, T/C (second compound 3.16 µM, first compound 0.03 µM): 13.9%
viability, T/C (second compound 3.16 µM, first compound 0.0949 µM): 15.3%
viability, T/C (second compound 3.16 µM, first compound 0.3 µM): 16.6%
viability, T/C (second compound 10 µM, first compound 0.000949 µM): 43.5%
viability, T/C (second compound 10 µM, first compound 0.003 µM): 35.9%
viability, T/C (second compound 10 µM, first compound 0.00949 µM): 22.4%
viability, T/C (second compound 10 µM, first compound 0.03 µM): 15.1%
viability, T/C (second compound 10 µM, first compound 0.0949 µM): 15.7%
viability, T/C (second compound 10 µM, first compound 0.3 µM): 16.6%

Nc1ccn(C2OC(CO)C(O)C2(F)F)c(=O)n1 (stereo not given) + CC(CO)NC(=O)c1cc(-c2ccc(Cl)cc2)nn(-c2cnn(C)c2)c1=O
IC50 (second compound 0.1 µM): < 31.6 nM
IC50 (second compound 0.316 µM): < 31.6 nM
IC50 (second compound 1 µM): < 31.6 nM
IC50 (second compound 3.16 µM): < 31.6 nM
IC50 (second compound 10 µM): < 31.6 nM
viability, T/C [1]: 12.1%
viability, T/C [2]: 11.5%
viability, T/C [3]: 11.5%
viability, T/C [4]: 11.7%
viability, T/C [5]: 11.6%
viability, T/C [6]: 10.9%
viability, T/C [7]: 11.8%
viability, T/C [8]: 11.9%
viability, T/C [9]: 13%
viability, T/C [10]: 10.9%
viability, T/C [11]: 11.6%
viability, T/C [12]: 12.8%
viability, T/C [13]: 12.6%
viability, T/C [14]: 14.1%
viability, T/C [15]: 14.4%
viability, T/C [16]: 12.3%
viability, T/C [17]: 10.6%
viability, T/C [18]: 12.6%
viability, T/C [19]: 10.6%
viability, T/C [20]: 13.3%
viability, T/C [21]: 12.9%
viability, T/C [22]: 10.6%
viability, T/C [23]: 11.2%
viability, T/C [24]: 11.1%
viability, T/C [25]: 11.6%
viability, T/C [26]: 11.8%
viability, T/C [27]: 12.7%
viability, T/C [28]: 11.3%
viability, T/C [29]: 12.7%
viability, T/C [30]: 11.9%

O=C(c1cc(Cc2n[nH]c(=O)c3ccccc23)ccc1F)N1CCN(C(=O)C2CC2)CC1 + CC(CO)NC(=O)c1cc(-c2ccc(Cl)cc2)nn(-c2cnn(C)c2)c1=O
IC50 (second compound 0.1 µM): > 10000 nM
IC50 (second compound 0.316 µM): > 10000 nM
IC50 (second compound 1 µM): > 10000 nM
IC50 (second compound 3.16 µM): > 10000 nM
IC50 (second compound 10 µM): > 10000 nM
viability, T/C [1]: 119%
viability, T/C [2]: 95.6%
viability, T/C [3]: 89.2%
viability, T/C [4]: 106%
viability, T/C [5]: 94.3%
viability, T/C [6]: 63.5%
viability, T/C [7]: 96.7%
viability, T/C [8]: 96.1%
viability, T/C [9]: 95.5%
viability, T/C [10]: 94.5%
viability, T/C [11]: 90.3%
viability, T/C [12]: 68.1%
viability, T/C [13]: 108%
viability, T/C [14]: 88.9%
viability, T/C [15]: 118%
viability, T/C [16]: 107%
viability, T/C [17]: 102%
viability, T/C [18]: 61.7%
viability, T/C [19]: 99.4%
viability, T/C [20]: 105%
viability, T/C [21]: 95.7%
viability, T/C [22]: 93.3%
viability, T/C [23]: 85.6%
viability, T/C [24]: 67.3%
viability, T/C [25]: 94%
viability, T/C [26]: 95.9%
viability, T/C [27]: 87.8%
viability, T/C [28]: 86%
viability, T/C [29]: 86.2%
viability, T/C [30]: 53.1%
